Reference: ChEMBL document CHEMBL3608207, “Synthesis, characterization, evaluation and molecular dynamics studies of 5, 6-diphenyl-1,2,4-triazin-3(2H)-one derivatives bearing 5-substituted 1,3,4-oxadiazole as potential anti-inflammatory and analgesic agents” (Eur J Med Chem, 2015)

What was measured:
Rattus norvegicus [1] = experiment: Anti-inflammatory activity in rat model of acute inflammation assessed as inhibition of carrageenan-induced paw oedema dosed at equimolar oral dose relative to 10 mg/kg, po indomethacin dosed 1 hr before carrageenan injection and measured 4 hrs after carrageenan injection; type: functional
Rattus norvegicus [2] = experiment: Anti-inflammatory activity in rat model of acute inflammation assessed as inhibition of carrageenan-induced paw oedema dosed at equimolar oral dose relative to 10 mg/kg, po indomethacin dosed 1 hr before carrageenan injection and measured 5 hrs after carrageenan injection relative to 10 mg/kg, po indomethacin; type: functional
Rattus norvegicus [3] = experiment: Anti-inflammatory activity in rat Freund's adjuvant induced arthritis model of chronic inflammation assessed as inhibition of right hind paw swelling at equimolar oral dose relative to 10 mg/kg, po indomethacin dosed after 14 days from day of adjuvant injection until day 21 and measured on day 3; type: functional
Rattus norvegicus [4] = experiment: Anti-inflammatory activity in rat Freund's adjuvant induced arthritis model of chronic inflammation assessed as inhibition of right hind paw swelling at equimolar oral dose relative to 10 mg/kg, po indomethacin dosed after 14 days from day of adjuvant injection until day 21 and measured on day 6; type: functional
Rattus norvegicus [5] = experiment: Anti-inflammatory activity in rat Freund's adjuvant induced arthritis model of chronic inflammation assessed as inhibition of right hind paw swelling at equimolar oral dose relative to 10 mg/kg, po indomethacin dosed after 14 days from day of adjuvant injection until day 21 and measured on day 21; type: functional
Rattus norvegicus [6] = experiment: Gastro-intestinal toxicity in rat Freund's adjuvant induced arthritis model of chronic inflammation assessed as ulcer index at equimolar oral dose relative to 10 mg/kg, po indomethacin dosed after 14 days from day of adjuvant injection until day 21 and measured on day 21; type: organism-based; conditions: in vivo, 336 h
Rattus norvegicus [7] = experiment: (§1) Gastro-intestinal toxicity in rat Freund's adjuvant induced arthritis model of chronic inflammation assessed as histological changes at equimolar oral dose relative to 10 mg/kg, po indomethacin dosed after 14 days from day of adjuvant injection until day 21 and measured on day 21 by hematoxylin and eosin staining based microscopy; type: organism-based; conditions: in vivo, 336 h
Rattus norvegicus [8] = experiment: Hepato-toxicity in rat Freund's adjuvant induced arthritis model of chronic inflammation assessed as assessed as SGPT level at equimolar oral dose relative to 10 mg/kg, po indomethacin dosed after 14 days from day of adjuvant injection until day 21 and measured on day 21 (reference value: 34.23 +/- 2.5 U/mL); type: organism-based; conditions: in vivo, 336 h
Rattus norvegicus [9] = experiment: as §1, with “Hepato-toxicity” for “Gastro-intestinal toxicity”; type: organism-based; conditions: in vivo, 336 h
Rattus norvegicus [10] = experiment: as §1, with “Renal” for “Gastro-intestinal”; type: organism-based; conditions: in vivo, 336 h
Rattus norvegicus [11] = experiment: Toxicity in healthy albino rat assessed as induction of mortality at 500 mg/kg, po measured after 14 days; type: organism-based; conditions: in vivo, 336 h
Rattus norvegicus [12] = experiment: Anti-inflammatory activity in rat model of acute inflammation assessed as inhibition of carrageenan-induced paw oedema dosed at equimolar oral dose relative to 10 mg/kg, po indomethacin dosed 1 hr before carrageenan injection and measured 1 hr after carrageenan injection; type: functional

SMILES | inhibition (INH) (Rattus norvegicus [1]) | inhibition (INH) (Rattus norvegicus [2]) | inhibition (INH) (Rattus norvegicus [3]) | inhibition (INH) (Rattus norvegicus [4]) | inhibition (INH) (Rattus norvegicus [5]) | UI (Rattus norvegicus [6]) | Activity (Rattus norvegicus [7]) | Activity (Rattus norvegicus [8]) | Activity (Rattus norvegicus [9]) | Activity (Rattus norvegicus [10]) | Activity (Rattus norvegicus [11]) | inhibition (INH) (Rattus norvegicus [12])
Nc1ccc(-c2nnc(Cn3nc(-c4ccccc4)c(-c4ccccc4)nc3=O)o2)cc1 | 56.96% | 93.92% | 31.14% | 36.5% | 52.21% | 12 | Non-toxic | 39.11 U/ml | Non-toxic | Non-toxic | Non-toxic | 24.02%
COc1ccc(-c2nnc(Cn3nc(-c4ccccc4)c(-c4ccccc4)nc3=O)o2)cc1 | 52.67% | 88.2% | 30.02% | 35.14% | 49.34% | 11 |  | 41.31 U/ml |  |  | Non-toxic | 18.24%
O=c1nc(-c2ccccc2)c(-c2ccccc2)nn1Cc1nnc(-c2ccc(O)cc2O)o1 | 59.74% | 94.3% | 31.26% | 37.61% | 54.25% | 10 | Non-toxic | 39.67 U/ml | Non-toxic | Non-toxic | Non-toxic | 24.71%
O=c1nc(-c2ccccc2)c(-c2ccccc2)nn1Cc1nnc(-c2ccc(Cl)cc2)o1 | 54.99% | 92.02% | 30.02% | 35.28% | 51.98% | 18 |  | 42.45 U/ml |  |  | Non-toxic | 22.98%
O=c1nc(-c2ccccc2)c(-c2ccccc2)nn1Cc1nnc(-c2ccc([N+](=O)[O-])cc2)o1 | 54.76% | 89.33% | 32.01% | 36.13% | 49.7% | 16 |  | 45.28 U/ml |  |  | Non-toxic | 19.98%
